Laboratory results from patent publication US20230398130A1, “METHODS AND COMPOSITIONS FOR DIFFERENTIATING STEM CELLS” (Massachusetts Institute of Technology, priority 2020, published 2023).

Legend:
ISC-enriched organoids [1] = assay: Primary screen, 384-well 2.5-D organoid differentiation (ENR+CD, 6 days): carbachol-induced lysozyme secretion (LYZ.S); assay type: cell-based, murine; details: primary screen, FC vs plate median
Description: (§1) High-throughput screening.

ISC-enriched organoids [2] = assay: Primary screen, 384-well 2.5-D organoid differentiation (ENR+CD, 6 days): basal lysozyme secretion (LYZ.NS); assay type: cell-based, murine; details: for Dose.FC.LYZ.NS: primary screen, FC vs plate median; for Z.LYZ.NS: standard z score of FC
Description: as §1

ISC-enriched organoids [3] = assay: Primary screen, 384-well 2.5-D organoid differentiation (ENR+CD, 6 days, Target Selective Inhibitor Library, vs whole-plate median): ATP (CellTiter-Glo 3D, CTG); details: for Dose.FC.CTG: primary screen, FC vs plate median; for Z.CTG: standard z score of FC

| Compound | Dose.FC.LYZ.S (ISC-enriched organoids [1]; Dose 0.08 uM) | Dose.FC.LYZ.S (ISC-enriched organoids [1]; Dose 0.40 uM) | Dose.FC.LYZ.S (ISC-enriched organoids [1]; Dose 2.00 uM) | Dose.FC.LYZ.S (ISC-enriched organoids [1]; Dose 10.00 uM) | Dose.FC.LYZ.NS (ISC-enriched organoids [2]; Dose 0.08 uM) | Z.LYZ.NS (ISC-enriched organoids [2]; Dose 0.08 uM) | Dose.FC.LYZ.NS (ISC-enriched organoids [2]; Dose 0.40 uM) | Z.LYZ.NS (ISC-enriched organoids [2]; Dose 0.40 uM) | Dose.FC.LYZ.NS (ISC-enriched organoids [2]; Dose 2.00 uM) | Z.LYZ.NS (ISC-enriched organoids [2]; Dose 2.00 uM) | Dose.FC.LYZ.NS (ISC-enriched organoids [2]; Dose 10.00 uM) | Z.LYZ.NS (ISC-enriched organoids [2]; Dose 10.00 uM) | Dose.FC.CTG (ISC-enriched organoids [3]; Dose 0.08 uM) | Z.CTG (ISC-enriched organoids [3]; Dose 0.08 uM) | Dose.FC.CTG (ISC-enriched organoids [3]; Dose 0.40 uM) | Z.CTG (ISC-enriched organoids [3]; Dose 0.40 uM) | Dose.FC.CTG (ISC-enriched organoids [3]; Dose 2.00 uM) | Z.CTG (ISC-enriched organoids [3]; Dose 2.00 uM) | Dose.FC.CTG (ISC-enriched organoids [3]; Dose 10.00 uM) | Z.CTG (ISC-enriched organoids [3]; Dose 10.00 uM) |
| --- | --- | --- | --- | --- | --- | --- | --- | --- | --- | --- | --- | --- | --- | --- | --- | --- | --- | --- | --- | --- |
| CCCCCCCCCCCCCCCCn1cc[n+](Cc2ccccc2)c1C.[I-] [NH125] | −0.114 log 2 fold change | −0.237 log 2 fold change | −0.358 log 2 fold change | −0.374 log 2 fold change | −0.035 log 2 fold change | −0.301 | −0.188 log 2 fold change | −1.634 | −0.219 log 2 fold change | −1.904 | −0.263 log 2 fold change | −2.293 | −0.347 log 2 fold change | −0.829 | −0.508 log 2 fold change | −1.213 | −1.106 log 2 fold change | −2.641 | −1.787 log 2 fold change | −4.268 |
| CC(C)(Cc1ccc2ccccc2c1)NC[C@@H](O)COc1cccc(Cl)c1C#N [NPS-2143] | 0.147 log 2 fold change | −0.062 log 2 fold change | −0.161 log 2 fold change | −0.116 log 2 fold change | 0.162 log 2 fold change | 1.413 | −0.048 log 2 fold change | −0.416 | −0.077 log 2 fold change | −0.674 | −0.069 log 2 fold change | −0.597 | 0.149 log 2 fold change | 0.356 | −0.195 log 2 fold change | −0.466 | −0.246 log 2 fold change | −0.587 | −0.118 log 2 fold change | −0.282 |
| Cc1ccc(S(=O)(=O)c2ccc([N+](=O)[O-])o2)cc1 [NSC697923] | 0.036 log 2 fold change | 0.108 log 2 fold change | −0.154 log 2 fold change | −0.270 log 2 fold change | 0.091 log 2 fold change | 0.789 | 0.051 log 2 fold change | 0.441 | −0.104 log 2 fold change | −0.906 | −0.154 log 2 fold change | −1.338 | −0.052 log 2 fold change | −0.123 | −0.014 log 2 fold change | −0.033 | −0.101 log 2 fold change | −0.241 | −0.782 log 2 fold change | −1.867 |
| CCN(CC)CCCC(C)Nc1nc(C)cc(Nc2ccc3nc(C)cc(N)c3c2)n1 (stereo not shown) [NSC 23766] | 0.080 log 2 fold change | 0.090 log 2 fold change | 0.031 log 2 fold change | 0.030 log 2 fold change | 0.081 log 2 fold change | 0.701 | 0.044 log 2 fold change | 0.380 | 0.058 log 2 fold change | 0.506 | 0.009 log 2 fold change | 0.080 | 0.043 log 2 fold change | 0.103 | 0.170 log 2 fold change | 0.406 | 0.117 log 2 fold change | 0.279 | 0.324 log 2 fold change | 0.774 |
| C/C(=N\NC(=S)N1CCC1)c1ccccn1 [NSC 319726] | 0.060 log 2 fold change | −0.035 log 2 fold change | −0.248 log 2 fold change | −0.327 log 2 fold change | 0.113 log 2 fold change | 0.982 | −0.090 log 2 fold change | −0.780 | −0.152 log 2 fold change | −1.323 | −0.229 log 2 fold change | −1.992 | 0.132 log 2 fold change | 0.316 | −0.185 log 2 fold change | −0.441 | −0.447 log 2 fold change | −1.068 | −1.907 log 2 fold change | −4.555 |
| CCCC(C)NC(=O)c1ccc(Cl)c(Cl)c1 (stereo not shown) [NSC 405020] | 0.014 log 2 fold change | 0.093 log 2 fold change | 0.002 log 2 fold change | −0.061 log 2 fold change | 0.008 log 2 fold change | 0.071 | −0.028 log 2 fold change | −0.246 | 0.018 log 2 fold change | 0.160 | −0.065 log 2 fold change | −0.570 | −0.059 log 2 fold change | −0.140 | −0.071 log 2 fold change | −0.170 | −0.059 log 2 fold change | −0.141 | −0.058 log 2 fold change | −0.138 |
| O=c1cc(N2CCOCC2)oc2c1ccc1ccccc12 [NU7026] | 0.021 log 2 fold change | 0.034 log 2 fold change | −0.056 log 2 fold change | −0.198 log 2 fold change | 0.023 log 2 fold change | 0.198 | 0.023 log 2 fold change | 0.198 | −0.058 log 2 fold change | −0.507 | −0.158 log 2 fold change | −1.380 | 0.096 log 2 fold change | 0.230 | 0.104 log 2 fold change | 0.248 | 0.107 log 2 fold change | 0.255 | −0.119 log 2 fold change | −0.284 |
| Nc1ncnc2c1c(-c1cccc(OCc3ccccc3)c1)cn2C1CC(CN2CCCC2)C1 (stereo not shown) [NVP-ADW742] | 0.245 log 2 fold change | 0.265 log 2 fold change | −0.166 log 2 fold change | −0.210 log 2 fold change | 0.142 log 2 fold change | 1.239 | 0.172 log 2 fold change | 1.499 | −0.095 log 2 fold change | −0.823 | −0.135 log 2 fold change | −1.172 | 0.679 log 2 fold change | 1.622 | 0.663 log 2 fold change | 1.583 | 0.257 log 2 fold change | 0.614 | −0.465 log 2 fold change | −1.112 |
